Where two headings read alike, the source gives them in different places. One block for each compound: values may come before it.
Legend:
[1] = Test Example 1 (flowability and floodability), Carr index table; format: physicochemical
Experimental: Test Example 1 (flowability and floodability): the compressibility was calculated by measuring bulk density and tap density of the crystals in Examples 1 and 2, and moreover, their dynamic bulk density, angle of repose, angle of spatula, uniformity, cohesion, angle of fall, angle of difference, and degree of dispersion were found, and flowability and floodability were evaluated using the Carr index table. (Table 1).

[2] = Test Example 2 (absorption properties at time of oral administration to rat); format: in vivo; conditions: single oral, mean ± SD (n = 4); for concentration at 1 hr: read-out: Unchanged compound level in blood plasma 1 hr; for concentration at 2 hr: read-out: Unchanged compound level in blood plasma 2 hr; for concentration at 4 hr: read-out: Unchanged compound level in blood plasma 4 hr; for concentration at 8 hr: read-out: Unchanged compound level in blood plasma 8 hr; for concentration at 24 hr: read-out: Unchanged compound level in blood plasma 24 hr; for AUC(0-t): read-out: AUC0-24 hr
Experimental: A test substance suspended in a 0.5% solution of methylcellulose was orally administered to a male CD (SD) rat (CHARLES RIVER LABORATORIES JAPAN, INC., 7 weeks old when used) in a dose of 30 and 300 mg/kg, and blood was then collected after 0.25, 0.5, 1, 2, 4, 8, and 24 hours. The level of unchanged compound in blood plasma was measured by HPLC (Table 2, Table 3), and pharmacokinetic parameters were calculated and absorption was evaluated (Table 4).

[3] = male, CD (SD), plasma, po, 30 mg/kg, 30 mg/kg
[4] = male, CD (SD), plasma, po, 300 mg/kg, 300 mg/kg

Floodability index ([1]; after pulverization): 43
Flowability index ([1]; after pulverization): 36
concentration at 1 hr [2, 3]: 49.8 ± 22.7 µg/mL
concentration at 2 hr [2, 3]: 33 ± 11 µg/mL
concentration at 4 hr [2, 3]: 26.6 ± 13 µg/mL
concentration at 8 hr [2, 3]: 20.4 ± 5.53 µg/mL
concentration at 24 hr [2, 3]: 1.16 ± 0.45 µg/mL
AUC(0-t) [2, 3]: 412 ± 123 µg·h/mL
Cmax ([2]; male, CD (SD), plasma, po, 30 mg/kg, 30 mg/kg, read-out: Cmax): 59.2 ± 29.5 µg/mL
Unchanged compound level in blood plasma 0.25 hr ([2]; 30 mg/kg): 38.18 ± 23.24 µg/mL
Unchanged compound level in blood plasma 0.5 hr ([2]; 30 mg/kg): 58.51 ± 30.81 µg/mL
Tmax ([2]; 30 mg/kg): 0.63 ± 0.25 h
Unchanged compound level in blood plasma 0.25 hr ([2]; 300 mg/kg): 174.78 ± 19.03 µg/mL
Unchanged compound level in blood plasma 0.5 hr ([2]; 300 mg/kg): 275.88 ± 42.51 µg/mL
Unchanged compound level in blood plasma 1 hr ([2]; 300 mg/kg): 275.53 ± 30.24 µg/mL
Unchanged compound level in blood plasma 2 hr ([2]; 300 mg/kg): 298.88 ± 35.19 µg/mL
Unchanged compound level in blood plasma 4 hr ([2]; 300 mg/kg): 285.55 ± 26.38 µg/mL
Unchanged compound level in blood plasma 8 hr ([2]; 300 mg/kg): 267.85 ± 25.73 µg/mL
Unchanged compound level in blood plasma 24 hr ([2]; 300 mg/kg): 73.31 ± 27.54 µg/mL
AUC0-24 hr ([2]; 300 mg/kg): 4923.74 ± 547.44 µg·h/mL
Cmax ([2]; 300 mg/kg): 307.28 ± 26.20 µg/mL
Tmax ([2]; 300 mg/kg): 4.00 ± 2.83 h
Compound: O=C(c1cc(Cl)c(O)c(Cl)c1)N1CS(=O)(=O)c2ccccc21 [Example 1, 3-(3,5-dichloro-4-hydroxybenzoyl)-1,1-dioxo-2,3-dihydro-1,3-benzothiazole]

Floodability index ([1]; after pulverization): 49.5
Flowability index ([1]; after pulverization): 42
Floodability index ([1]; before pulverization): 57.5
Flowability index ([1]; before pulverization): 65
concentration at 1 hr [2, 4]: 140 ± 20.3 µg/mL
concentration at 2 hr [2, 4]: 264 ± 42.2 µg/mL
concentration at 4 hr [2, 4]: 314 ± 11.2 µg/mL
concentration at 8 hr [2, 4]: 267 ± 38.4 µg/mL
concentration at 24 hr [2, 4]: 47.2 ± 19.9 µg/mL
AUC(0-t) [2, 4]: 4530 ± 269 µg·h/mL
Cmax ([2]; male, CD (SD), plasma, po, 300 mg/kg, 300 mg/kg, read-out: Cmax): 316 ± 11.4 µg/mL
Tmax ([2]; male, CD (SD), plasma, po, 300 mg/kg, 300 mg/kg, read-out: Tmax): 3.5 ± 1 h
Unchanged compound level in blood plasma 0.25 hr ([2]; 30 mg/kg): 12.45 ± 3.94 µg/mL
Unchanged compound level in blood plasma 0.5 hr ([2]; 30 mg/kg): 27.41 ± 4.71 µg/mL
Unchanged compound level in blood plasma 1 hr ([2]; 30 mg/kg): 37.38 ± 2.85 µg/mL
Unchanged compound level in blood plasma 2 hr ([2]; 30 mg/kg): 38.54 ± 0.91 µg/mL
Unchanged compound level in blood plasma 4 hr ([2]; 30 mg/kg): 23.23 ± 3.08 µg/mL
Unchanged compound level in blood plasma 8 hr ([2]; 30 mg/kg): 19.23 ± 2.51 µg/mL
Unchanged compound level in blood plasma 24 hr ([2]; 30 mg/kg): 1.35 ± 0.73 µg/mL
AUC0-24 hr ([2]; 30 mg/kg): 371.97 ± 34.08 µg·h/mL
Cmax ([2]; 30 mg/kg): 39.03 ± 0.43 µg/mL
Tmax ([2]; 30 mg/kg): 1.50 ± 0.58 h
Unchanged compound level in blood plasma 0.25 hr ([2]; 300 mg/kg): 39.18 ± 4.61 µg/mL
Unchanged compound level in blood plasma 0.5 hr ([2]; 300 mg/kg): 79.93 ± 13.24 µg/mL
Compound: O=C(c1cc(Cl)c(O)c(Cl)c1)N1CS(=O)(=O)c2ccccc21 [Example 2, 3-(3,5-dichloro-4-hydroxybenzoyl)-1,1-dioxo-2,3-dihydro-1,3-benzothiazole]

Reference: US10752601B2, “Crystal form and salt of 3-(3,5-dichloro-4-hydroxybenzoyl)-1,1-dioxo-2,3-dihydro-1,3-benzothiazole” (FUJI YAKUHIN CO., LTD., priority 2017, dated 2020)
